# Key:
# Type in all cases: in vivo, Xenopus tropicalis
# Xenopus embryos [1] = assay: Gastrulation scoring (incomplete blastopore closure) in treated or kcnh6-depleted embryos; conditions: kcnh6 depletion, injected at one-cell stage
# Description: All injections of Xenopus embryos were performed at the one-cell stage using a fine glass needle and Picospritzer system. A kcnh6 translation blocking (kcnh6 MO, 5′-[…]-3′, SEQ ID NO:1) and a scrambled morpholino oligonucleotide were obtained from Gene Tools LLC and injected at 10 ng to deplete kcnh6 or as a control, respectively. CRISPR sgRNAs for kcnh6 targeted either exon 3 or exon 4 based on the v7.1 gene model of the X. tropicalis genome (CRex3: 5′-[…]-3′, SEQ ID NO:2 and CRex4: 5′-[…]-3′, SEQ ID NO:3). CRISPR sgRNAs for cacna1c (5′-[…]-3′, SEQ ID NO:4) and cacna1g (5′-[…]-3′, SEQ ID NO:5) were designed from the v7.1 model of the Xenopus tropicalis genome. For F0 CRISPR knockdown, embryos were injected with 1.5 ng Cas9 Protein (PNA-Bio) and 400 pg of targeting sgRNA and raised to desired stages. […] Full length human KCNH6 (NM 030779.3; cloned in pCS107), GCaMP6 (subcloned in pCSDest) and mCherry cDNAs (Addgene #34935; in pCS2+), were used to generate capped mRNAs in vitro by first linearizing with appropriate restriction enzymes and then transcribing with the mMessage machine kit (Ambion). mRNAs were injected at 3 pg (human KCNH6), 150 pg (GCaMP6) and 150 pg (mCherry) per embryo. Embryos were raised at 21° C. to allow time for sufficient expression levels at blastula/gastrula stages.
# (§1) Normal embryonic medium is 1/9× modified Ringer's (MR) containing 11 mM NaCl, 0.2 mM KCl, 0.2 mM CaCl2), 0.1 mM Mg2Cl and 0.55 mM HEPES. To allow Ergtoxin to penetrate the embryos, the present study manually removed the vitelline envelope of stage 8 embryos and incubated embryos in 1/9×MR containing 50 nM Ergtoxin (Alomone STE-450) until stage 12. Embryos were then transferred back into 1/9×MR lacking Ergtoxin to develop until stage 45 in order to score organ situs. Barium chloride was applied into the medium at 20 mM and embryos were thoroughly rinsed in 1/9×MR after each incubation period for further development in Ba2+-free medium. For extracellular K^+ manipulations, the KCl concentration in 1/9×MR was modified from 0.2 mM (normal) to 20 mM (high) or 0 mM (low). The ionophore valinomycin (ACROS) and L-type VGCC blocker Nifedipine (ACROS) were diluted in DMSO as stock solutions and applied to embryos in 1/9×MR at 2 nM and 10 μM respectively. Treatments performed during gastrulation were applied from stage 8 through stage 12, and embryos were then rinsed thoroughly and returned into 1/9×MR. For rapamycin, the present study created a standard stock solution of 50 mg/ml in DMSO. The stock solution was diluted 1:2500 in the appropriate embryonic media (final 20 μg/ml). Embryos were treated at stage 7 and then fixed at stage 11 for in situ hybridization.
# (§2) In experiments where embryos were evaluated for phenotypes and scored (gastrulation, left-right patterning, in situ hybridizations) the present study carried out three to five biological replicates and Fisher's exact test to evaluate statistical significance. The animal cap experiment was performed twice with a total score of four to eight animal caps per experiment. For the calcium transient analyses, data was collected from three to five embryos in each experiment in three independent experiments, and statistical analyses on GCaMP/mCherry fluorescence intensity as well as Ca^2+ transient area were performed using student's t-test. For whole cell electrophysiological recordings, three to five embryos (two cells each) were examined for their membrane potential and statistical significance was tested by student's t-test. Graphs were designed using GraphPad Prism software. Models were created with BioRender.com.
# Xenopus embryos [2] = assay: Organ situs (left-right patterning) scoring in stage 45 tadpoles; conditions: kcnh6 depletion, injected at one-cell stage
# Description: Stage 45 Xenopus embryos were paralyzed with benzocaine or tricaine and scored with a light stereomicroscope. Cardiac looping was determined by position of the outflow tract; D-loop: rightward, L-loop: leftward; A-loop: midline. Normal intestinal looping was scored as counter-clockwise rotation of the gut, while abnormal intestinal looping was scored as completely inverse gut rotation (clockwise) or complete lack of looping (un-looped). While a completely inverted gut rotation is clearly an abnormality of LR patterning, an unlooped gut is less clear so the present study only considered an unlooped gut as abnormal situs when combined with abnormal placement (left-sided or midline) of the gall bladder. To quantify total abnormal organ situs, each tadpole was counted only once, regardless of whether multiple organs were affected.
# as §1, §2
# [3] = test system: animal pole cells (prospective ectoderm); assay: Intracellular Vm recordings in animal pole cells; conditions: stage 10 (gastrulation onset), animal pole, MO injected embryos
# Excerpt: For recordings, devitellinized, stage 10 kcnh6 or control MO injected embryos were mounted into non-toxic clay with their animal pole exposed and covered with 1/9×MR. To investigate the resting potential, animal pole cells were impaled with a high-impedance (˜70 Me), sharp microelectrode filled with 3 M KCl for intracellular recordings. The recordings were made using an Axon 200B amplifier and digitized using a Digidata 1320 digitizer. Jclamp software for Windows was used in current clamp mode. All electrodes were zeroed just before entry into the cells.
# For the series of intracellular recordings in high K^+ and choline treated embryos, stage 8-9 embryos were impaled similarly with an electrode of […]. These recordings were made using a HEKA EPC10 amplifier. The present study used HEKA PatchMaster v2x67 software for Windows. […]
# In experiments where embryos were evaluated for phenotypes and scored (gastrulation, left-right patterning, in situ hybridizations) the present study carried out three to five biological replicates and Fisher's exact test to evaluate statistical significance. […] For the calcium transient analyses, data was collected from three to five embryos in each experiment in three independent experiments, and statistical analyses on GCaMP/mCherry fluorescence intensity as well as Ca^2+ transient area were performed using student's t-test. […]
# [4] = test system: animal pole of stage 10 embryos; assay: Calcium imaging (GCaMP6/mCherry) of the animal pole; conditions: stage 10, 20 s time lapse
# Description: GCaMP6 and mCherry mRNAs were mixed and injected into embryos at the one-cell stage. Half of these embryos were then injected with kcnh6 MO and the other half with control MO, still at the one-cell stage. Embryos were transferred at stage 10 into the round wells of a press-to-seal silicone isolator (Sigma 53685) mounted between two cover slips in 2% Methylcellulose- 1/9×MR. GcaMP6 and mCherry fluorescence was then captured for 20s (1 frame per second) via time lapse in the whole animal pole of each embryo with a 20× objective of an LSM710 confocal microscope using identical acquisition settings across Control MO and kcnh6 MO embryos. […] However, all embryos did display transient increases in GcaMP6 fluorescence, varying in intensity and spreading to multiple cells. The frames of each recording were sorted to identify the calcium transient peak (in area), and GcAMP6 fluorescence intensity was quantified at peak as a ratio to mCherry in mCherry+ cells. The maximum Ca′ transient area was calculated by demarcating in Fuji the GCaMP6(+) vs GcaMP6(−) area of the animal pole at transient peak. […]
# In experiments where embryos were evaluated for phenotypes and scored (gastrulation, left-right patterning, in situ hybridizations) the present study carried out three to five biological replicates and Fisher's exact test to evaluate statistical significance. […]
substance,measurement,setting,value
"kcnh6 MO: kcnh6 translation blocking morpholino oligonucleotide, 5′-GGTCCTCGAAGTTTAGGATAAACAT-3′, SEQ ID NO:1 (all phosphorodiamidate morpholino (PMO))",inability to complete gastrulation,Xenopus embryos [1],31±3%
same,abnormal organ situs,Xenopus embryos [2],91±7%
same,Vm,[3],−21.8±4.6 mV
same,"animal pole area simultaneously affected by Ca^2+ transients, average",[4],71±11%
same,animal pole area with simultaneous calcium increases in most embryos,[4],> 90%

# Reference: patent US20240018470A1, “METHOD OF MANIPULATING PLURIPOTENCY IN CELLS” (YALE UNIVERSITY, priority 2022, published 2024)
